# Measured values taken from patent US20240327425A1, “KRAS G12D INHIBITOR AND USE THEREOF” (SHANGHAI DE NOVO PHARMATECH CO., LTD., priority 2021, published 2024).
# Assays:
# [1] = test system: ASPC-1 human pancreatic cancer cells; test: Cell proliferation assay (Cell Titer-Glo), ASPC-1; assay type: cell-based
# Procedure: (§1) On day 1, AGS human gastric cancer cells, ASPC-1 human pancreatic cancer cells, or GP2D human colon cancer cells (Nanjing Cobioer Biosciences Co. Ltd.) in the logarithmic growth phase were taken, digested with an appropriate amount of trypsin, formulated into a single cell suspension using RPMI 1640 (Gibco) medium containing 10% fetal bovine serum and 1% penicillin-streptomycin, counted to adjust the cell density, inoculated in a 96-well plate at 95 μL/well so that there were 3000 cells per well, and then the cell culture plate was incubated in a 37° C., 5% CO2 incubator for overnight. On day 2, a 10 mM concentrated stock solution of KRAS G12D inhibitor was 3-fold serially diluted with dimethyl sulfoxide solution, and then diluted with AGS complete culture medium to make a working solution, which was added to a cell culture plate at 5 μL/well so that the compound had the highest concentration of 10 μM and the lowest concentration of 0.0015 μM, and the control group was 0.5% dimethyl sulfoxide. The cell culture plate was briefly centrifuged and then incubated in a CO2 incubator for 72 hours. On day 5, the cell culture plate was taken out, added with Cell Titer-Glo (Promega) detection reagent in each well, incubated in the dark for 10 minutes, and then luminescence was detected using a microplate reader (Tecan, Infinite M1000 Pro). Data were analyzed using Graphpad software, and curve fitting was performed with four-parameter equation and the IC50 value of the inhibitor was calculated.
# [2] = molecular target: Human KRAS G12D His-tagged protein (Homo sapiens (Human), UniProt P01116, G12D); test: KRAS G12D binding assay (TR-FRET); settings: GDP 20 nM, GTP-Red
# Procedure: The binding ability of the compound to KRAS G12D protein was detected by TR-FRET method, and the inhibitory activity of the compound on KRAS G12D protein was evaluated. Human KRAS G12D His-tagged (Cisbio, 63ADK000CB27PEG) protein was 100-fold diluted with PPI Eu detection buffer (Cisbio, 61DB9RBF), then 5 μL of which was added to a 384-well plate and centrifuged at 2000 rpm for 40 seconds. A 10 mM concentrated stock solution of the test compound was prepared with dimethyl sulfoxide, 3-fold serially diluted, then diluted to make a working solution (0.5% DMSO) with PPI Eu detection buffer, added to a 384-well plate at 5 μL/well, with the control group added with 0.5% dimethyl sulfoxide and the highest concentration of the test compound at 10 μM, and centrifuged at 2000 rpm for 40 seconds. An 80 nM GDP standard working solution (Cisbio, 63ADK000CB27PEG) was prepared with PPI Eu detection buffer and added to a 384-well plate at 5 μL/well, with the final concentration of GDP standard working solution at 20 nM. The plate was centrifuged at 2000 rpm for 40 seconds and reacted at room temperature for 30 minutes. 1×6His Eu cryptate antibody and GTP-Red reagent (Cisbio, 63ADK000CB27PEG) were prepared with PPI Eu detection buffer, mixed in a volume ratio of 1:1, 5 μL of which was then added to a 384-well plate, centrifuged at 2000 rpm for 40 seconds, and incubated at room temperature for 30 minutes. The fluorescence intensity at 620 nm and 665 nm was detected by a microplate reader, and the inhibitory activity of the compound on KRAS G12D protein was obtained by fitting a four-parameter equation.
# [3] = test system: GP2D human colon cancer cells subcutaneous xenograft tumor; test: In vivo pharmacodynamic experiment of subcutaneous xenograft tumor model in mice of GP2D human colon cancer cells; settings: BALB/c nude mice; for Tumor volume (11 days, mm^3): 11 days (at grouping)
# Procedure: Cell culture: GP2D human colon cancer cells were maintained in monolayer culture in DMEM culture medium containing 10% fetal bovine serum in a constant temperature incubator containing 5% CO2 at 37° C. Tumor cells were passaged twice a week. Cells in the exponential growth phase were harvested and counted for inoculation.
# Experimental animals: BALB/c nude mice, 6 to 8 weeks, 18 to 22 g, purchased from Jiangsu GemPharmatech Co. Ltd.
# Experimental method: GP2D cell line ([…]) was inoculated subcutaneously on the right back of experimental mice. The inoculation volume of each mouse was 0.1 mL. The growth of the tumor was observed regularly. When the tumor grew to about 150 mm^3, the mice were randomly grouped according to the tumor size and body weight, and the drug was administrated according to the administration plan shown in Table 1. The body weight and tumor size were measured twice a week throughout the experiment.
# tumor volume (mm^3)=0.5×(tumor long diameter×tumor short diameter^2). Tumor size calculation formula: […]
# [4] = test system: phosphorylation level of ERK1/2 in ASPC-1 human pancreatic cancer cells; test: pERK cell level assay (PHOSPHO-ERK1/2 HTRF kit); assay type: cell-based; settings: Aspc-1 cells, 4 hours incubation
# Procedure: In this experiment, the phosphorylation level of ERK1/2 in AGS human gastric cancer cells or ASPC-1 human pancreatic cancer cells was detected using PHOSPHO-ERK1/2 (THR202/TYR 204) (Cisibo, 64ERKPEH) kit, and the inhibitory effect of the compounds on KRAS G12D was investigated based on the phosphorylation level of ERK1/2.
# On day 1, the density of AGS cell (ATCC) suspension was adjusted to 2.1×10^5 cells/mL, then the suspension was spread in a 96-well plate at 95 μL/well so that there were 2×10^4 cells per well, and the cell culture plate was incubated in a 37° C., 5% CO2 incubator for overnight. On day 2, the compound was serially diluted with 100% dimethyl sulfoxide, and then further diluted with a complete culture medium (RPMI-1640+10% FBS+1% PS) to make a working solution of the compound, which was added to a 96-well cell culture plate at 5 μL/well, and incubated in a 37° C., 5% CO2 incubator for 4 hours. After the incubation was completed, the culture medium was discarded, then 1× lysis buffer was added thereto at 50 μL/well, and the plate was shaken at room temperature for 30 minutes. 16 μL of lysis buffer was added to a white 384-well shallow well plate, then 4 μL of pre-formulated antibody mixture was added thereto, and the plate was sealed with microplate sealer and incubated at room temperature for overnight. On day 3, detection was performed on a TECAN M1000 Pro microplate reader using the HTRF setting, and the IC50 value of the compound was calculated.
# [5] = test system: GP2D human colon cancer cells; test: Cell proliferation assay (Cell Titer-Glo), GP2D; assay type: cell-based; settings: Homo sapiens, 72 hours
# Procedure: as §1
# [6] = Homo sapiens, ASPC1, Aspc-1, 72 hours
# Sequence of Human KRAS G12D His-tagged protein (P01116-2 other isoform, or with tags, fused parts or gaps G12D): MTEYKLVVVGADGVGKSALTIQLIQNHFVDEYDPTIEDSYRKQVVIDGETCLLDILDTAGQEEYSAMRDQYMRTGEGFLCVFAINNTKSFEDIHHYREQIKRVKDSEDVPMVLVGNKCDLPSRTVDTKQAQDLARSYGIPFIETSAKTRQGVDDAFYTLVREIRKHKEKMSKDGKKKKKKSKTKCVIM
smiles,measurement,setting,value
"[2H]C1([2H])CC[C@@]2(COc3nc4c5c(c(Cl)c(-c6cccc7sc(N)c(C#N)c67)c(F)c5n3)OC[C@@H]3[C@@H]5CC[C@H](CN43)N5)C[C@@H](F)CN12 (single isomer, unassigned) [Compound I-20-2]",IC50,[1]; [6],6.49 nM
same,IC50,[2],1.89 nM
"C#Cc1c(F)ccc2cc(O)cc(-c3ncc4c(N5CC6CCC(C5)N6)nc(OC[C@@]56CCCN5C[C@H](F)C6)nc4c3F)c12 [Ref. A, MRTX1133, reference compound]","Tumor volume (11 days, mm^3)",[3]; 3 mg/kg i.p. twice a day,139.25 ± 17.31 mm^3
same,"Tumor volume (21 days, mm^3)",[3]; 3 mg/kg i.p. twice a day,137.35 ± 18.79 mm^3
same,T/C (%),[3]; 3 mg/kg i.p. twice a day,30.3%
same,Tumor regression rate (%),[3]; 3 mg/kg i.p. twice a day,−1.4%
same,"Tumor volume (11 days, mm^3)",[3]; 10 mg/kg i.p. twice a day,139.90 ± 20.43 mm^3
same,"Tumor volume (21 days, mm^3)",[3]; 10 mg/kg i.p. twice a day,79.77 ± 13.97 mm^3
same,T/C (%),[3]; 10 mg/kg i.p. twice a day,17.6%
same,Tumor regression rate (%),[3]; 10 mg/kg i.p. twice a day,−43.0%
"[2H]C([2H])(Oc1nc2c3c(c(Cl)c(-c4cccc5sc(N)c(C#N)c45)c(F)c3n1)OC[C@@H]1[C@@H]3CC[C@H](CN21)N3)[C@@]12CCCN1C[C@H](F)C2 (single isomer, unassigned) [Compound I-24-2]",IC50,[1]; [6],6.66 nM
same,IC50,[2],1.75 nM
"Nc1nc2c(-c3c(Cl)c4c5c(nc(OC[C@@]67CCCN6C[C@H](F)C7)nc5c3F)N3C[C@H]5CC[C@H](N5)[C@H]3CO4)cccc2s1 (single isomer, unassigned) [Compound I-12-2]",IC50,"[4]; Homo sapiens, ASPC1, pERK1/2 (THR202/TYR204)",8.23 nM
same,IC50,[2],3.01 nM
"N#Cc1c(N)sc2cccc(-c3c(Cl)c4c5c(nc(OC[C@@]67CCCN6C[C@H](F)C7)nc5c3F)N3C[C@H]5CC[C@H](N5)[C@H]3CO4)c12 [Compound I-7, 2-amino-4-((5aS,6S,9R)-3-chloro-1-fluoro-13-(((2R,7aS)-2-fluorohexahydro-1H-pyrrolizin-7a-yl)methoxy)-5a,6,7,8,9,10-hexahydro-5H-6,9-epiminoazepino[2′,1′:3,4][1,4]oxazepino[5,6,7-de]quinazolin-2-yl)benzo[b]thiophene-3-carbonitrile ditrifluoroacetate]",IC50,[4]; pERK1/2 (THR202/TYR204),1.59 nM
same,IC50,"[1]; Aspc-1, 72 hours",5.53 nM
same,IC50,[2],6.59 nM
"[2H]C1([2H])CC[C@@]2(C([2H])([2H])Oc3nc4c5c(c(Cl)c(-c6cccc7sc(N)c(C#N)c67)c(F)c5n3)OC[C@@H]3[C@@H]5CC[C@H](CN43)N5)C[C@@H](F)CN12 (single isomer, unassigned) [Compound I-27-2]",IC50,[5],0.133 nM
same,IC50,[2],1.4 nM
"Cc1ccc2sc(N)c(C#N)c2c1-c1c(Cl)c2c3c(nc(OC[C@@]45CCCN4C[C@H](F)C5)nc3c1F)N1C[C@H]3CC[C@H](N3)[C@H]1CO2 [Compound I-21, 2-amino-4-((5aS,6S,9R)-3-chloro-1-fluoro-13-(1-((2R,7aS)-2-fluorohexahydro-1H-pyrrolizin-7a-yl)methoxy)-5a,6,7,8,9,10-hexahydro-5H-6,9-epiminoazepino[2′,1′:3,4][1,4]oxazepino[5,6,7-de]quinazolin-2-yl)-5-methylbenzo[b]thiophene-3-carbonitrile ditrifluoroacetate]",IC50,[1]; [6],16.9 nM
same,IC50,[2],9.76 nM
"N#Cc1c(N)sc2c1C(c1c(Cl)c3c4c(nc(OC[C@@]56CCCN5C[C@H](F)C6)nc4c1F)N1C[C@H]4CC[C@H](N4)[C@H]1CO3)=CCC2 [Compound I-25, 2-amino-4-((5aS,6S,9R)-3-chloro-1-fluoro-13-(((2R,7aS)-2-fluorohexahydro-1H-pyrrolizin-7a-yl)methoxy)-5a,6,7,8,9,10-hexahydro-5H-6,9-epiminoazepino[2′,1′:3,4][1,4]oxazepino[5,6,7-de]quinazolin-2-yl)-6,7-dihydrobenzo[b]thiophene-3-carbonitrile ditrifluoroacetate]",IC50,[1]; [6],25.8 nM
same,IC50,[2],12 nM
